Measured values: patent US11998539B2, “Substituted aminoquinolones as DGKalpha inhibitors for immune activation” (Bayer Aktiengesellschaft, priority 2019, dated 2024)

Target: DGKα (Homo sapiens (Human), UniProt P23743)
Test: Human DGKα kinase activity inhibition assay (ADP-Glo)
Assay type: biochemical
Details: recombinant full-length human DGKα, 55 μM ATP, 7 μM 1,2-dioleoyl-sn-glycerol, read-out: IC50 values of examples in in vitro human DGKa kinase activity inhibition assays
Outline: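 Recombinant full-length human DGKα (C-terminal FLAG, from insect cells) phosphorylated 1,2-dioleoyl-sn-glycerol presented in octyl-glucopyranoside micelles. ADP formed was quantified by ADP-Glo luminescence. Compounds were added from 100-fold DMSO stocks.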

Chain of DGKα (P23743 other isoform, or with tags, fused parts or gaps): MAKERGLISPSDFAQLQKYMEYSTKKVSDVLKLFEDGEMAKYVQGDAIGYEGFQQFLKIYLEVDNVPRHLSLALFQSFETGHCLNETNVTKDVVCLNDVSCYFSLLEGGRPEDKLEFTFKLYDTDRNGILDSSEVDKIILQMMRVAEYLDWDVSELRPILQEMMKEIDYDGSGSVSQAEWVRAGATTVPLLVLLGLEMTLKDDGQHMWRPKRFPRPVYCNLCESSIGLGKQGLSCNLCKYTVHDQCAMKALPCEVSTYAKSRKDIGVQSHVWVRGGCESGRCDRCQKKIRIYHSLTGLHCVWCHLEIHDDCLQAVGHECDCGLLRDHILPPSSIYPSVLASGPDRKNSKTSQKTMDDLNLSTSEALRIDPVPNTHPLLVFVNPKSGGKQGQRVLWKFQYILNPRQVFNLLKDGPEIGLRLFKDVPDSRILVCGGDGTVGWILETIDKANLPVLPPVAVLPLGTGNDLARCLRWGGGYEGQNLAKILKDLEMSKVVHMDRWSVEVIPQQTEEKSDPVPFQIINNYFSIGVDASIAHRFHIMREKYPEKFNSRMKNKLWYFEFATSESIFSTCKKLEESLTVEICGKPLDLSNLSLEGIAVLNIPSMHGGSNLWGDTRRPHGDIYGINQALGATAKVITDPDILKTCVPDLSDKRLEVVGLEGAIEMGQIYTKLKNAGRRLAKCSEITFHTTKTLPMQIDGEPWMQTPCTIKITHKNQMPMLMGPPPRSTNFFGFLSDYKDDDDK

Row | Structure (SMILES) | IC50 [µM]
1 | CCCOc1ccc2c(c1)c(N1CCC(C)(c3nc4cc(C)ccc4o3)CC1)c(C#N)c(=O)n2C [Example 279, 1-methyl-4-[4-methyl-4-(5-methyl-1,3-benzoxazol-2-yl)piperidin-1-yl]-2-oxo-6-propoxy-1,2-dihydroquinoline-3-carbonitrile] | 1.28
2 | Cc1ccc2oc(C3(C)CCN(c4c(C#N)c(=O)n(C)c5c(C6CC6)cccc45)CC3)nc2c1 [Example 272, 8-cyclopropyl-1-methyl-4-[4-methyl-4-(5-methyl-1,3-benzoxazol-2-yl)piperidin-1-yl]-2-oxo-1,2-dihydroquinoline-3-carbonitrile] | 0.113
3 | Cc1ccc2c(c1)c(N1CCC(C)(c3nc4cc(C(C)C)ccc4o3)CC1)c(C(N)=O)c(=O)n2C [Example 199, 1,6-dimethyl-4-{4-methyl-4-[5-(propan-2-yl)-1,3-benzoxazol-2-yl]piperidin-1-yl}-2-oxo-1,2-dihydroquinoline-3-carboxamide] | 0.0034
4 | Cc1ccc2oc(C3(C)CCN(c4c(C#N)c(=O)n(C)c5cc(CC6COC6)ccc45)CC3)nc2c1 [Example 285, 1-methyl-4-[4-methyl-4-(5-methyl-1,3-benzoxazol-2-yl)piperidin-1-yl]-7-[(oxetan-3-yl)methyl]-2-oxo-1,2-dihydroquinoline-3-carbonitrile] | 0.01
5 | COc1ccc(C2CCN(c3c(C(N)=O)c(=O)n(C)c4ccccc34)CC2)cc1 [Example 112, 4-[4-(4-methoxyphenyl)piperidin-1-yl]-1-methyl-2-oxo-1,2-dihydroquinoline-3-carboxamide] | 0.0045
6 | Cn1c(=O)c(C#N)c(N2CCC(c3nc4ccccc4o3)CC2)c2ccc(C#N)cc21 [Example 275, 4-[4-(1,3-benzoxazol-2-yl)piperidin-1-yl]-1-methyl-2-oxo-1,2-dihydroquinoline-3,7-dicarbonitrile] | 0.172
7 | Cc1ccc2oc(C3CCN(c4c(C(N)=O)c(=O)n(C)c5ccc(C(N)=O)cc45)CC3)nc2c1 [Example 499, 1-methyl-4-[4-(5-methyl-1,3-benzoxazol-2-yl)piperidin-1-yl]-2-oxo-1,2-dihydroquinoline-3,6-dicarboxamide] | 0.074
8 | Cn1c(=O)c(C#N)c(N2CCC(c3nc4ccc(Br)cc4s3)CC2)c2ccccc21 [Example 14, 4-[4-(6-bromo-1,3-benzothiazol-2-yl)piperidin-1-yl]-1-methyl-2-oxo-1,2-dihydroquinoline-3-carbonitrile] | 0.0044
9 | Cc1cccc(-c2nnc(C3CCN(c4c(C(N)=O)c(=O)n(C)c5ccc(Br)cc45)CC3)o2)c1 [Example 526, 6-bromo-1-methyl-4-{4-[5-(3-methylphenyl)-1,3,4-oxadiazol-2-yl]piperidin-1-yl}-2-oxo-1,2-dihydroquinoline-3-carboxamide] | 0.027
10 | Cc1ccc2oc(C3CCN(c4c(C(N)=O)c(=O)n(C)c5ccc(Br)cc45)CC3)nc2c1 [Example 492, 6-bromo-1-methyl-4-[4-(5-methyl-1,3-benzoxazol-2-yl)piperidin-1-yl]-2-oxo-1,2-dihydroquinoline-3-carboxamide] | 0.0015
11 | Cc1nc2ccc(C3CCN(c4c(C#N)c(=O)n(C)c5ccccc45)CC3)cc2s1 [Example 377, 1-methyl-4-[4-(2-methyl-1,3-benzothiazol-6-yl)piperidin-1-yl]-2-oxo-1,2-dihydroquinoline-3-carbonitrile] | 0.0048
12 | COc1cccc2c(N3CCC(C)(c4nc5cc(C)ccc5o4)CC3)c(C#N)c(=O)n(C)c12 [Example 260, 8-methoxy-1-methyl-4-[4-methyl-4-(5-methyl-1,3-benzoxazol-2-yl)piperidin-1-yl]-2-oxo-1,2-dihydroquinoline-3-carbonitrile] | 0.035
13 | Cn1c(=O)c(C#N)c(N2CCC(C)(c3nc4cc(C(C)(C)C)ccc4o3)CC2)c2ccccc21 [Example 24, 4-[4-(5-tert-butyl-1,3-benzoxazol-2-yl)-4-methylpiperidin-1-yl]-1-methyl-2-oxo-1,2-dihydroquinoline-3-carbonitrile] | 0.045
